# Experimental data: the supplement of paper PMC10307832
# Assays:
# Assay in all cases: relative viability (nuclei count vs DMSO), 5 days (fraction); higher = more cells survive
# [1] = compound: C1CC(C2=C(C1)C3=C(N2)C=CC(=C3)Cl)C(=O)N [Selisistat] + Cc1cc(Nc2cc(N3CCN(C)CC3)nc(Sc3ccc(NC(=O)C4CC4)cc3)n2)n[nH]1 [Tozasertib] (partner 0.1 µM)
# How it was run: (§1)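 Lung cancer cell lines were seeded in 1536-well plates and dosed by pin tool the next day, with either a single drug or a fixed anchor-drug dose combined with five library-drug doses (not always all listed) spaced in √10 steps. Five days later, one step fixed the cells and stained their nuclei (final 0.05% Triton X-100, 1% formaldehyde, 1 ug/ml Hoechst), and nuclei were counted on 4× images. Relative viability is the nuclei count in treated wells divided by the count in vehicle wells, and each value is the median of duplicate plates.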
# [2] = compound: C1CC(C2=C(C1)C3=C(N2)C=CC(=C3)Cl)C(=O)N [Selisistat] + CS(=O)(=O)N1CCN(Cc2cc3nc(-c4cccc5[nH]ncc45)nc(N4CCOCC4)c3s2)CC1 [Pictilisib] (partner 1 µM)
# How it was run: as §1
# [3] = compound: C1CC(C2=C(C1)C3=C(N2)C=CC(=C3)Cl)C(=O)N [Selisistat] + C[C@]1(O)C[C@@H](c2nc(-c3ccc4ccc(-c5ccccc5)nc4c3)c3c(N)nccn32)C1 [Linsitinib] (partner 1 µM)
# How it was run: as §1
# [4] = compound: C1CC(C2=C(C1)C3=C(N2)C=CC(=C3)Cl)C(=O)N [Selisistat] + COc1cccc2cc(-c3nc([C@H]4CC[C@H](C(=O)O)CC4)n4ncnc(N)c34)[nH]c12 [OSI-027] (partner 0.5 µM)
# How it was run: as §1
Cell Line,relative viability ([1]; first compound 0.4 µM),relative viability ([1]; first compound 1.265 µM),relative viability ([1]; first compound 4 µM),relative viability ([1]; first compound 12.65 µM),relative viability ([1]; first compound 40 µM),relative viability ([2]; first compound 0.4 µM),relative viability ([2]; first compound 1.265 µM),relative viability ([2]; first compound 4 µM),relative viability ([2]; first compound 12.65 µM),relative viability ([2]; first compound 40 µM),relative viability ([3]; first compound 0.4 µM),relative viability ([3]; first compound 1.265 µM),relative viability ([3]; first compound 4 µM),relative viability ([3]; first compound 12.65 µM),relative viability ([3]; first compound 40 µM),relative viability ([4]; first compound 0.4 µM),relative viability ([4]; first compound 1.265 µM),relative viability ([4]; first compound 4 µM),relative viability ([4]; first compound 12.65 µM),relative viability ([4]; first compound 40 µM)
LXF-289,0.18,0.162,0.2,0.179,0.237,0.845,0.812,0.633,0.747,0.85,0.995,0.954,0.895,0.913,1.01,0.797,0.806,0.667,0.788,0.838
NCI-H23,0.377,0.384,0.319,0.33,0.295,0.562,0.462,–,0.567,0.51,0.631,0.466,–,0.579,0.6,0.56,0.602,0.508,0.529,0.605
NCI-H322M,0.552,0.475,0.455,0.469,0.495,0.562,0.525,–,0.549,0.604,1,1.03,–,0.959,0.976,0.607,0.583,0.461,0.507,0.576
NCI-H358,0.0984,0.1,0.102,0.092,0.0962,0.402,0.361,–,0.408,0.395,0.722,0.726,–,0.687,0.68,0.926,0.802,0.363,0.709,0.905
NCI-H441,0.688,0.607,0.65,0.597,0.59,0.511,0.44,0.405,0.547,0.48,0.648,0.639,0.502,0.448,0.554,0.658,0.532,0.481,0.544,0.754
NCI-H460,0.515,0.366,0.289,0.28,0.441,0.439,0.282,0.164,0.317,0.33,0.848,0.663,–,0.821,0.824,0.695,0.667,0.471,0.557,0.666
NCI-H520,0.387,0.472,0.488,0.415,0.451,0.262,0.304,0.15,0.294,0.354,0.823,0.954,0.982,0.967,0.969,0.311,0.216,0.257,0.248,0.206
NCI-H596,0.848,0.753,0.898,0.835,0.914,0.372,0.411,0.391,0.434,0.434,1,1.11,1.03,1.23,0.999,0.793,0.692,0.505,0.698,0.732
NCI-H647,0.227,0.322,0.44,0.29,0.343,0.488,–,0.289,0.422,0.361,1.15,1.12,–,1.07,1.26,0.746,0.58,0.614,0.713,0.829
NCI-H650,0.783,0.674,0.717,0.622,0.66,0.746,–,1.11,0.594,0.807,0.824,–,0.987,0.72,1.01,0.524,0.523,0.715,0.496,0.555
NCI-H661,0.353,0.354,0.379,0.352,0.352,0.476,0.478,0.343,0.348,0.38,0.596,0.609,0.52,0.488,0.588,0.749,0.81,0.744,0.629,0.564
NCI-H727,0.681,0.518,–,0.483,0.69,0.354,0.435,–,–,0.423,0.297,0.292,–,–,0.395,0.587,0.641,–,0.641,0.511
NCI-H838,0.238,0.278,0.245,0.26,0.249,0.48,0.514,0.39,0.489,0.446,1.06,1.06,1.03,1.06,1.06,0.449,0.368,0.295,0.407,0.409
NCI-H1355,0.599,0.648,0.519,0.497,0.589,0.406,0.427,–,0.5,0.514,0.903,0.838,–,0.974,0.996,0.465,0.426,0.281,0.407,0.404
NCI-H1395,0.705,0.698,0.81,0.8,0.686,0.617,0.609,0.564,0.656,0.557,1.16,1.28,1.02,1,0.521,0.691,0.675,0.53,0.502,0.622
NCI-H1437,0.426,0.398,0.339,0.369,0.369,0.48,0.439,0.202,0.503,0.455,1.11,0.981,1.09,0.986,0.89,0.908,0.915,0.631,0.891,0.783
NCI-H1651,0.7,0.735,0.599,0.618,0.584,0.595,0.596,0.48,0.553,0.516,0.936,0.898,1.02,1.05,0.849,0.605,0.744,0.705,0.674,0.764
